Drawing on the OligoGym collection, this text covers normalised inhibition (eCFP-eYFP dual reporter) for 49 substances.

Oligonucleotides are written 5' to 3', each unit as a sugar letter and its base; * is a phosphorothioate linkage, no mark a phosphodiester; rarer units and linkages stand in square brackets, end groups in braces. Plain capitals give the bases only. d = 2'-deoxy (DNA); r = 2'-OH (RNA)
Also: test concentration or dose not given here.

The target in the first data set is UBE2S. The data set can be described thus: reporter assay of Huesken 2005. To be noted: siRNA.
With “sense rUrUrCrCrCrArArCrGrArGrGrArGrGrArCrCrUdTdT / antisense rArGrGrUrCrCrUrCrCrUrCrGrUrUrGrGrGrArAdAdG”, the normalised inhibition (eCFP-eYFP dual reporter) was determined as 41.6%.

Another data set deals with UBE2W. The data set can be described thus: reporter assay of Huesken 2005. To be noted: siRNA.
As for “sense rArArArArUrArUrUrCrCrUrGrUrUrCrArUrCrCdTdT / antisense rGrGrArUrGrArArCrArGrGrArArUrArUrUrUrUdCdA”, the normalised inhibition (eCFP-eYFP dual reporter) was found to be 53.5%.
Take “sense rArArArArUrUrCrArArUrUrArCrArCrArGrUrGdTdT / antisense rCrArCrUrGrUrGrUrArArUrUrGrArArUrUrUrUdGdA”: the normalised inhibition (eCFP-eYFP dual reporter) came out at 76.8%.
Still for that read-out and setting: the same measure for “sense rArArCrUrUrCrUrArUrUrUrArArArUrUrUrArGdTdT / antisense rCrUrArArArUrUrUrArArArUrArGrArArGrUrUdGdA”: 96.1%; for “sense rArArGrArGrArCrGrArCrCrArCrCrGrGrArUrAdTdT / antisense rUrArUrCrCrGrGrUrGrGrUrCrGrUrCrUrCrUrUdTdT”: 82.7%.
“sense rArArGrArGrUrGrUrUrCrArArArArUrUrCrArAdTdT / antisense rUrUrGrArArUrUrUrUrGrArArCrArCrUrCrUrUdCdT”: the normalised inhibition (eCFP-eYFP dual reporter) stood at 114%.
Take “sense rArArUrCrArGrUrUrUrGrUrCrUrUrArGrCrArUdTdT / antisense rArUrGrCrUrArArGrArCrArArArCrUrGrArUrUdGdG”: the normalised inhibition (eCFP-eYFP dual reporter) came to 104%.
On the same count and under the same terms, in the case of “sense rArArUrUrArCrArCrArGrUrGrGrArUrUrGrUrAdTdT / antisense rUrArCrArArUrCrCrArCrUrGrUrGrUrArArUrUdGdA” it was 112%; in that of “sense rArArUrUrUrCrArArCrUrUrCrUrArUrUrUrArAdTdT / antisense rUrUrArArArUrArGrArArGrUrUrGrArArArUrUdTdT”, 97.5%.
The same measure, in the same setting: the same measure for “sense rArCrArCrArGrUrGrGrArUrUrGrUrArGrArCrAdTdT / antisense rUrGrUrCrUrArCrArArUrCrCrArCrUrGrUrGrUdAdA”: 99.3%; for “sense rArCrArGrUrGrGrArUrUrGrUrArGrArCrArUrGdTdT / antisense rCrArUrGrUrCrUrArCrArArUrCrCrArCrUrGrUdGdT”: 110%; for “sense rArCrCrArCrCrGrGrArUrArArUrUrCrUrUrUrUdTdT / antisense rArArArArGrArArUrUrArUrCrCrGrGrUrGrGrUdCdG”: 96.7%.
As to “sense rArCrUrGrGrUrCrCrCrCrArGrCrGrCrUrCrUrCdTdT / antisense rGrArGrArGrCrGrCrUrGrGrGrGrArCrCrArGrUdCdT”, the normalised inhibition (eCFP-eYFP dual reporter) worked out at 93.1%.
On the same count and under the same terms, the same measure for “sense rArGrArArGrArCrUrGrGrUrCrCrCrCrArGrCrGdTdT / antisense rCrGrCrUrGrGrGrGrArCrCrArGrUrCrUrUrCrUdGdT”: 88.4%.
On the same count and under the same terms, the same measure for “sense rArGrArArUrCrCrArArArGrArArArArCrArArAdTdT / antisense rUrUrUrGrUrUrUrUrCrUrUrUrGrGrArUrUrCrUdTdG”: 106%; for “sense rArGrArGrUrGrUrUrCrArArArArUrUrCrArArUdTdT / antisense rArUrUrGrArArUrUrUrUrGrArArCrArCrUrCrUdTdC”: 109%.
Same read-out and setting: in the case of “sense rArGrCrArUrUrArUrUrArGrCrArUrGrCrUrUrUdTdT / antisense rArArArGrCrArUrGrCrUrArArUrArArUrGrCrUdAdA” it was 84.8%; in that of “sense rArGrGrUrGrCrArCrCrArGrGrUrArCrCrUrUrAdTdT / antisense rUrArArGrGrUrArCrCrUrGrGrUrGrCrArCrCrUdTdC”, 93.2%.
As to “sense rArGrUrArGrUrCrGrArUrArUrCrCrUrUrUrUrGdTdT / antisense rCrArArArArGrGrArUrArUrCrGrArCrUrArCrUdAdA”, the normalised inhibition (eCFP-eYFP dual reporter) was 124%.
“sense rArGrUrCrGrArUrArUrCrCrUrUrUrUrGrArCrUdTdT / antisense rArGrUrCrArArArArGrGrArUrArUrCrGrArCrUdAdC”: the normalised inhibition (eCFP-eYFP dual reporter) is 81.4%.
As for “sense rArUrCrArGrUrUrUrGrUrCrUrUrArGrCrArUrUdTdT / antisense rArArUrGrCrUrArArGrArCrArArArCrUrGrArUdTdG”, the normalised inhibition (eCFP-eYFP dual reporter) was 107%.
On the same count and under the same terms, in the case of “sense rArUrCrCrUrCrArUrGrUrUrUrArUrArGrCrArAdTdT / antisense rUrUrGrCrUrArUrArArArCrArUrGrArGrGrArUdGdA” it was 104%; in that of “sense rArUrCrUrGrUrUrUrArUrCrCrArUrUrCrUrArAdTdT / antisense rUrUrArGrArArUrGrGrArUrArArArCrArGrArUdAdT”, 96.6%.
Consider “sense rArUrGrArCrCrUrUrArArArUrGrArGrArArGrAdTdT / antisense rUrCrUrUrCrUrCrArUrUrUrArArGrGrUrCrArUdTdC”, for which the normalised inhibition (eCFP-eYFP dual reporter) is 68.9%.
The same measure, in the same setting: in the case of “sense rArUrGrGrArArGrGrUrGrCrArCrCrArGrGrUrAdTdT / antisense rUrArCrCrUrGrGrUrGrCrArCrCrUrUrCrCrArUdGdT” it was 86.1%.
Consider “sense rArUrGrUrGrCrGrArArCrArUrGrUrArArCrArAdTdT / antisense rUrUrGrUrUrArCrArUrGrUrUrCrGrCrArCrArUdAdA”, for which the normalised inhibition (eCFP-eYFP dual reporter) was 88.7%.
Still for that read-out and setting: in the case of “sense rArUrGrUrUrUrArUrArGrCrArArUrGrGrUrCrAdTdT / antisense rUrGrArCrCrArUrUrGrCrUrArUrArArArCrArUdGdA” it was 96.2%; in that of “sense rArUrUrArGrCrArUrGrCrUrUrUrCrCrArGrCrUdTdT / antisense rArGrCrUrGrGrArArArGrCrArUrGrCrUrArArUdAdA”, 67.5%; in that of “sense rCrArArGrGrArArArArGrArGrArCrGrArCrCrAdTdT / antisense rUrGrGrUrCrGrUrCrUrCrUrUrUrUrCrCrUrUrGdCdA”, 110%.
On the same count and under the same terms, the same measure for “sense rCrArCrArGrUrGrGrArUrUrGrUrArGrArCrArUdTdT / antisense rArUrGrUrCrUrArCrArArUrCrCrArCrUrGrUrGdTdA”: 115%.
On the same count and under the same terms, in the case of “sense rCrArGrUrCrCrArArUrCrArGrUrUrUrGrUrCrUdTdT / antisense rArGrArCrArArArCrUrGrArUrUrGrGrArCrUrGdAdG” it was 122%; in that of “sense rCrArUrUrArUrUrArGrCrArUrGrCrUrUrUrCrCdTdT / antisense rGrGrArArArGrCrArUrGrCrUrArArUrArArUrGdCdT”, 93.2%.
Turning to “sense rCrCrArArArGrArArArArCrArArArArUrGrGrUdTdT / antisense rArCrCrArUrUrUrUrGrUrUrUrUrCrUrUrUrGrGdAdT”, the normalised inhibition (eCFP-eYFP dual reporter) was 101%.
On the same count and under the same terms, the same measure for “sense rCrCrUrCrCrUrGrGrArArUrGrArCrCrUrUrArAdTdT / antisense rUrUrArArGrGrUrCrArUrUrCrCrArGrGrArGrGdTdG”: 99.3%.
On to “sense rCrGrArUrArUrCrCrUrUrUrUrGrArCrUrCrUrCdTdT / antisense rGrArGrArGrUrCrArArArArGrGrArUrArUrCrGdAdC”, for which the normalised inhibition (eCFP-eYFP dual reporter) came out at 85.7%.
Still for that read-out and setting: the same measure for “sense rCrUrArUrUrUrArArArUrUrUrArGrUrArGrUrCdTdT / antisense rGrArCrUrArCrUrArArArUrUrUrArArArUrArGdAdA”: 83.5%.
Still for that read-out and setting: the same measure for “sense rCrUrCrCrUrGrGrArArUrGrArCrCrUrUrArArAdTdT / antisense rUrUrUrArArGrGrUrCrArUrUrCrCrArGrGrArGdGdT”: 100%; for “sense rCrUrGrGrUrGrArArArArUrArUrUrCrCrUrGrUdTdT / antisense rArCrArGrGrArArUrArUrUrUrUrCrArCrCrArGdTdA”: 108%; for “sense rCrUrGrUrUrCrArUrCrCrUrCrArUrGrUrUrUrAdTdT / antisense rUrArArArCrArUrGrArGrGrArUrGrArArCrArGdGdA”: 113%.
Same read-out and setting: in the case of “sense rCrUrUrUrCrCrArGrCrUrGrCrArArGrGrArArAdTdT / antisense rUrUrUrCrCrUrUrGrCrArGrCrUrGrGrArArArGdCdA” it was 103%.
For “sense rGrArArGrArCrUrGrGrUrCrCrCrCrArGrCrGrCdTdT / antisense rGrCrGrCrUrGrGrGrGrArCrCrArGrUrCrUrUrCdTdG”, the normalised inhibition (eCFP-eYFP dual reporter) is 80.5%.
On the same count and under the same terms, the same measure for “sense rGrArCrArUrGrGrArArGrGrUrGrCrArCrCrArGdTdT / antisense rCrUrGrGrUrGrCrArCrCrUrUrCrCrArUrGrUrCdTdA”: 94.9%; for “sense rGrArCrCrArCrCrGrGrArUrArArUrUrCrUrUrUdTdT / antisense rArArArGrArArUrUrArUrCrCrGrGrUrGrGrUrCdGdT”: 96.4%.
With “sense rGrArGrArArGrArGrUrGrUrUrCrArArArArUrUdTdT / antisense rArArUrUrUrUrGrArArCrArCrUrCrUrUrCrUrCdAdT”, the normalised inhibition (eCFP-eYFP dual reporter) stood at 116%.
The same measure, in the same setting: the same measure for “sense rGrCrArArGrGrArArArArGrArGrArCrGrArCrCdTdT / antisense rGrGrUrCrGrUrCrUrCrUrUrUrUrCrCrUrUrGrCdAdG”: 112%; for “sense rGrCrGrCrUrCrUrCrArGrUrCrCrArArUrCrArGdTdT / antisense rCrUrGrArUrUrGrGrArCrUrGrArGrArGrCrGrCdTdG”: 109%.
On the same count and under the same terms, the same measure for “sense rGrGrUrCrArUrGrUrUrUrArCrUrGrGrUrGrArAdTdT / antisense rUrUrCrArCrCrArGrUrArArArCrArUrGrArCrCdTdG”: 103%.
Same read-out and setting: the same measure for “sense rGrUrGrArArArArUrArUrUrCrCrUrGrUrUrCrAdTdT / antisense rUrGrArArCrArGrGrArArUrArUrUrUrUrCrArCdCdA”: 82%.
In the case of “sense rGrUrGrCrGrArArCrArUrGrUrArArCrArArGrAdTdT / antisense rUrCrUrUrGrUrUrArCrArUrGrUrUrCrGrCrArCdAdT”, the normalised inhibition (eCFP-eYFP dual reporter) amounted to 125%.
